This is an account of results in paper PMC6943578, “Isolation of Novel ACE-Inhibitory and Antioxidant Peptides from Quinoa Bran Albumin Assisted with an In Silico Approach: Characterization, In Vivo Antihypertension, and Molecular Docking” (Molecules, 2019).

Read-outs that look alike come from different tables or passages of the source. Where a SMILES comes first, the peptide text is derived from it.

For one data set, the target named is T1, ACE (from rabbit lung) (Oryctolagus cuniculus, UniProt P12822).
T1 construct: ACE (from rabbit lung) were purchased from Sigma-Aldrich Co; purchased Sigma-Aldrich Co; host or cells: rabbit lung tissue
T1 sequence (P12822 34-1310): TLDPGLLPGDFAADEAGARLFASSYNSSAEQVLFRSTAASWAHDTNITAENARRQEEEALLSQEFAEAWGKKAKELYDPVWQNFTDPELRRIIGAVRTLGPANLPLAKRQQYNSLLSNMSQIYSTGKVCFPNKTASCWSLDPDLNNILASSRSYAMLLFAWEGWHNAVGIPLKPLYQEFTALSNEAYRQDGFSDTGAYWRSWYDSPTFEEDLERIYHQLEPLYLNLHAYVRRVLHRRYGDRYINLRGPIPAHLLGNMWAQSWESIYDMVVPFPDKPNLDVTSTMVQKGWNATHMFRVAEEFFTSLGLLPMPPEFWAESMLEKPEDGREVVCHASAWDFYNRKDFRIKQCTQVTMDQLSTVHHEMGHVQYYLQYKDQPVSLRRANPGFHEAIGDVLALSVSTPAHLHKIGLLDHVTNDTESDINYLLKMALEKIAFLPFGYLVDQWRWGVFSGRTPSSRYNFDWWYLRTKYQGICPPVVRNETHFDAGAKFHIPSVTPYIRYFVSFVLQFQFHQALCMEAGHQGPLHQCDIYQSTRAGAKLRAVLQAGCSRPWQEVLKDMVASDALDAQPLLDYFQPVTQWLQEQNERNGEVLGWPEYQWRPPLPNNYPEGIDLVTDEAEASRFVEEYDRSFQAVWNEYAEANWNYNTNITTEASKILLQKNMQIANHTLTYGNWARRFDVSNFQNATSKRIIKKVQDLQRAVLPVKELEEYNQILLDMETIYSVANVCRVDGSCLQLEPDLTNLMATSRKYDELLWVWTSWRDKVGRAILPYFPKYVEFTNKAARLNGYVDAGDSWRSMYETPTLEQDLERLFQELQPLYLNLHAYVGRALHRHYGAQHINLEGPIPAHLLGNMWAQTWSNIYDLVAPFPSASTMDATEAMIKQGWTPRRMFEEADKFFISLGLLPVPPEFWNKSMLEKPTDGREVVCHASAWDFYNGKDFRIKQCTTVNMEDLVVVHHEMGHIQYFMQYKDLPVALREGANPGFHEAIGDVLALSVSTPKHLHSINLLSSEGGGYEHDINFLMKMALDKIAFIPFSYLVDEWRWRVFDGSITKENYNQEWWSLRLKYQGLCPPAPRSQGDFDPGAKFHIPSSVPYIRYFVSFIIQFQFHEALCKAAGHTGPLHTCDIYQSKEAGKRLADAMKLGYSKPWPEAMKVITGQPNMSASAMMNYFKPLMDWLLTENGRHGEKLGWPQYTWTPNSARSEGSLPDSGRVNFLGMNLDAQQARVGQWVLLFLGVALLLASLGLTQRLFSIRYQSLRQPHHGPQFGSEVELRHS
Briefly: ACE-inhibitory activity, HHL substrate, spectrophotometric. The settings on record: synthetic peptide, 37 °C, 1 h, absorbance at 228 nm, from regression of % inhibition vs concentration, repeated at least three times. The data set is classed as biochemical. As to the method:
The ACE-inhibitory activity was evaluated using HHL as a substrate by monitoring the released hippuric acid using a spectrophotometric method. Briefly, the reaction system comprised 50 µL of ACE (25 mU), 150 µL of 8.3 mM HHL, and 50 µL of sample solutions. After incubation in a shaking water bath (37 °C) for 1 h, 1 M HCl (250 µL) was added to stop the reaction. The hippuric acid formed was subsequently extracted by 1.4 mL ethyl acetate. After centrifugation, 1 mL of the supernatant was collected and evaporated at 80 °C for 60 min in a vacuum. The residue was then dissolved in 2 mL of distilled water and the absorbance at 228 nm was read. The inhibitory activity was calculated as follows:(1) ACE inhibition % = 1− AS/AC ×100, where AC is the absorbance of the ACE solution without an inhibitor and AS is the absorbance of the mixture-contained samples. The IC50 value, the inhibitor concentration required to inhibit half the ACE activity, was acquired by nonlinear regression from a plot of percentage ACE inhibition versus different inhibitor concentrations.

Data set [1] relates to spontaneously hypertensive rats (SHRs). The experiment in a line: Body weight of SHRs during administration. It is filed as in vivo, rat. The settings on record: oral 50, 100, 150 mg/kg once daily, five weeks; p > 0.05.
Experimental: Following the method indicated by Zou et al. [26] with some modifications, 20 male SHRs (10 weeks, 230 ± 20 g body weight (bw)) were purchased from Vital River Laboratory Animal Technology Co., Ltd (Beijing, China). After conditioning for one week, the rats were divided into five groups of four rats each. […] High dosage group (150 mg/kg body weight once daily), middle dosage group (100 mg/kg body weight once daily), and low dosage group (50 mg/kg body weight once daily) were orally given the peptide dissolved in 0.9% saline solution via gastric intubation. All of the treatments were conducted for five consecutive weeks. Each week, the systolic blood pressure (SBP) and diastolic blood pressure (DBP) of the rats were measured with a non-invasive blood-pressure apparatus (BP-300A Non-Invasive Blood Pressure Monitoring System, Chengdu, China). The body weight and heart rate of the rats were determined at the same time. At least five readings were recorded and averaged out.
The conditions of data set [2]: read-out: ABTS·+ scavenging ability IC50; cited from earlier work. An excerpt: ABTS·^+ scavenging activity represents the total antioxidant activity of potential antioxidants. […] Moreover, the presence of hydrophobic amino ...
For data set [3] the following is noted: cited from earlier work. An excerpt: The presence of some metal ions like Fe^2+ and Cu^2+ can extremely accelerate the oxidative chain reaction of oil and induce the production of more various radicals. […] It was pointed out that amino acid residues such as Pro, Phe, and Arg in the side chain could act a ...
For the next data set, the system named is ACE. On the set-up: method as in 2 sources, one per row (each row's own in cited_ref): ref 6 = [6]; PMID 28317757; doi:10.1016/j.foodchem.2017.02.039; 6. Lee S.Y. Hur S.J. Antihypertensive peptides from animal products, marine organisms, and plants Food Chem. 2017 228 506 517 10.1016/j.foodchem.2017.02.039 28317757 ||| ref 25, 30, 31 = [25]; PMID 30229250; doi:10.1039/C8FO00569A; 25. Ling Y. Sun L.P. Zhuang Y.L. Preparation and identification of novel inhibitory angiotensin-I-converting enzyme peptides from tilapia skin gelatin hydrolysates: inhibition kinetics and molecular d || [30]; doi:10.1016/j.lwt.2018.12.059; 30. Bhaskara B. Ananthanarayana L. Jamdar S. Purification, identification, and characterization of novel angiotensin I converting enzyme (ACE) inhibitory peptides from alcalase digested horse gram flo || [31]; doi:10.1016/j.lwt.2016.08.047; 31. Wang X. Chen H. Fu X. Li S. Wei J. A novel antioxidant and ACE inhibitory peptide from rice bran protein: Biochemical characterization and molecular docking study LWT-Food Sci. Technol. 2017 75 93. The settings on record: peptides from tilapia skin gelatin, horse gram protein, rice bran protein; read-out: IC50 of ACE-inhibitory activity; cited from earlier work. An excerpt: With the help of databases AHTPDB and BIOPEP, and based on the similarity to the already reported ACE-inhibitory and antioxidant peptides, three peptides, namely […]

On to `CC[C@H](C)[C@H](NC(=O)[C@@H](NC(=O)[C@H](CCC(N)=O)NC(=O)CNC(=O)[C@@H](N)CCCNC(=N)N)C(C)C)C(=O)N[C@@H](Cc1ccc(O)cc1)C(=O)N[C@H](C(=O)N[C@@H](CC(C)C)C(=O)O)C(C)C` (H-RGQVIYVL-OH), for which the IC50 against ACE (from rabbit lung) was 38.2 µM. Further, the “Side effect on SHRs (heart rate and body weight vs negative control)” value in data set [1] was “no obvious side effect”.
Regarding “HPLDSLCL [literature antioxidant peptide]”, the IC50 in data set [2] was 74.4 µM.
On to “Leu-Ala-Arg-Leu [literature peptide from tilapia gelatin]”, for which the “Fe2+ chelating ability” value in data set [3] (at 1 mg/mL, peptide from tilapia gelatin) is listed as 46.53%.
As for QLLLQQ, in the data set on ACE, the IC50 was 75 µM.
For VGLPNSR, the IC50 in the data set on ACE was 80.9 µM.
Consider “VTSLDLPVLRW [literature antioxidant peptide]”, for which the IC50 in data set [2] was 661 µM.
Consider “YYIVS [literature peptide from sweet potato protein]”, for which, in data set [3] (at 3 mg/mL, peptide from sweet potato protein), the “Fe2+ chelating ability” value is listed as 59.74%.

By IC50 is commonly meant the concentration that inhibits the measured activity by half.
